Assay results reported in PubChem BioAssay (NCI).
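Five concentrations, 48 hours, 96-well plates. At the TGI there is no net growth.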

What was measured:
Experiment in all cases: NCI-60 cell line screen, 48 h
[1] = system: LOX IMVI melanoma
[2] = system: U251 CNS
[3] = system: HCC-2998 colon
[4] = system: T-47D breast
[5] = system: SF-539 CNS
[6] = system: SK-MEL-5 melanoma
[7] = system: KM12 colon
[8] = system: OVCAR-5 ovarian
[9] = system: SF-295 CNS
[10] = system: ACHN renal
[11] = system: A498 renal
[12] = system: COLO 205 colon
[13] = system: UO-31 renal
[14] = system: DU-145 prostate
[15] = system: MCF7 breast
[16] = system: A549 NSCLC
[17] = system: MOLT-4 leukemia
[18] = system: OVCAR-4 ovarian
[19] = system: HOP-92 NSCLC
[20] = system: MALME-3M melanoma
[21] = system: CAKI-1 renal
[22] = system: OVCAR-8 ovarian
[23] = system: RPMI-8226 leukemia
[24] = system: NCI-H460 lung
[25] = system: HS 578T breast
[26] = system: HT29 colon
[27] = system: MDA-N
[28] = system: EKVX NSCLC
[29] = system: 786-0 renal
[30] = system: SN12C renal
[31] = system: MDA-MB-435
[32] = system: NCI-H23 lung
[33] = system: M14 melanoma
[34] = system: HOP-62 NSCLC
[35] = system: NCI/ADR-RES ovarian
[36] = system: UACC-257 melanoma
[37] = system: PC-3 prostate
[38] = system: MDA-MB-231 breast
[39] = system: SNB-19 CNS
[40] = system: IGROV1 ovarian
[41] = system: HCT-116 colon
[42] = system: K-562 leukemia
[43] = system: CCRF-CEM leukemia
[44] = system: NCI-H522 lung
[45] = system: HL-60(TB) leukemia
[46] = system: SW-620 colon
[47] = system: SF-268 CNS
[48] = system: HCT-15 colon
[49] = system: RXF 393 renal
[50] = system: OVCAR-3 ovarian
[51] = system: NCI-H226 lung
[52] = system: SK-MEL-28 melanoma
[53] = system: SNB-75 CNS
[54] = system: SK-OV-3 ovarian
[55] = system: UACC-62 melanoma
[56] = system: SK-MEL-2 melanoma
[57] = system: TK-10 renal

CN(C)Cc1cc(C(=O)/C=C/c2ccc(Cl)c(Cl)c2)cc(CN(C)C)c1O
TGI [1]: 2 µM | TGI [2]: 13.6 µM | TGI [3]: 12.5 µM | TGI [4]: 19.9 µM | TGI [5]: 8.93 µM | TGI [6]: 3.37 µM | TGI [7]: 4.73 µM | TGI [8]: 20.9 µM | TGI [9]: 12.1 µM | TGI [10]: 11.6 µM | TGI [11]: 11.1 µM | TGI [12]: 2.65 µM | TGI [13]: 5.39 µM | TGI [14]: 15.9 µM | TGI [15]: 12.3 µM | TGI [16]: 8.47 µM | TGI [17]: 10.5 µM | TGI [18]: 15.4 µM | TGI [19]: 3.85 µM | TGI [20]: 10.4 µM | TGI [21]: 4.08 µM | TGI [22]: 4.9 µM | TGI [23]: > 100 µM | TGI [24]: 7.9 µM | TGI [25]: 8.74 µM | TGI [26]: 2.79 µM | TGI [27]: 10.9 µM | TGI [28]: 20.8 µM | TGI [29]: 3.09 µM | TGI [30]: 7.83 µM | TGI [31]: 13.2 µM | TGI [32]: 19.9 µM | TGI [33]: 4.34 µM | TGI [34]: 6.45 µM | TGI [35]: 7.85 µM | TGI [36]: 5.1 µM | TGI [37]: 5.32 µM | TGI [38]: 14.3 µM | TGI [39]: 11.6 µM | TGI [40]: 12.4 µM | TGI [41]: 12.1 µM | TGI [42]: 4.74 µM | TGI [43]: 11.7 µM | TGI [44]: 3.31 µM | TGI [45]: > 100 µM | TGI [46]: 3.19 µM | TGI [47]: 13.2 µM | TGI [48]: 12.7 µM | TGI [49]: 11.1 µM | TGI [50]: 5.46 µM | TGI [51]: 13.5 µM | TGI [52]: 10.3 µM

O=C(Cc1ccccc1)NN1C(=O)/C(=C\c2cccc([N+](=O)[O-])c2)SC1=Nc1ccccc1
TGI [2]: > 100 µM | TGI [3]: > 100 µM | TGI [4]: > 100 µM | TGI [53]: > 100 µM | TGI [54]: > 100 µM | TGI [5]: > 100 µM | TGI [6]: > 100 µM | TGI [7]: > 100 µM | TGI [8]: > 100 µM | TGI [9]: > 100 µM | TGI [10]: > 100 µM | TGI [11]: > 100 µM | TGI [12]: > 100 µM | TGI [13]: > 100 µM | TGI [14]: > 100 µM | TGI [15]: > 100 µM | TGI [16]: > 100 µM | TGI [17]: > 100 µM | TGI [55]: > 100 µM | TGI [56]: > 100 µM | TGI [18]: > 100 µM | TGI [19]: > 100 µM | TGI [22]: > 100 µM | TGI [23]: > 100 µM | TGI [24]: > 100 µM | TGI [25]: > 100 µM | TGI [26]: > 100 µM | TGI [27]: > 100 µM | TGI [28]: > 100 µM | TGI [29]: > 100 µM | TGI [30]: > 100 µM | TGI [31]: > 100 µM | TGI [32]: > 100 µM | TGI [33]: > 100 µM | TGI [34]: > 100 µM | TGI [35]: > 100 µM | TGI [36]: > 100 µM | TGI [38]: > 100 µM | TGI [39]: > 100 µM | TGI [40]: > 100 µM | TGI [41]: > 100 µM | TGI [42]: > 100 µM | TGI [46]: > 100 µM | TGI [47]: > 100 µM | TGI [48]: > 100 µM | TGI [49]: > 100 µM | TGI [50]: > 100 µM | TGI [51]: > 100 µM | TGI [52]: > 100 µM | TGI [57]: > 100 µM
